From PubChem BioAssay AID256 (DTP/NCI, 2004) come the findings set out here.

The test system of the test is CD2F1 mice, L1210 leukemia ip, survival T/C. The experiment in a line: NCI In Vivo Anticancer Drug Screen. Data for tumor model L1210 Leukemia (intraperitoneal) in CD2F1 (CDF1) mice. Conditions: endpoint: mean survival time, higher = longer survival. Put shortly: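 Tumor-bearing mice (transplanted tumor) were split into treated and vehicle control groups, and the measured endpoint of each treated group was divided by that of its vehicle controls.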

[1] abbreviates: dose: 100.0 mg/kg/injection, schedule: Q04DX002 (ip), vehicle: saline with Tween-80.
The mark [2] stands for this setting: dose: 200.0 mg/kg/injection, schedule: Q04DX002 (ip), vehicle: saline with Tween-80.
The mark [3] stands for this setting: dose: 100.0 mg/kg/injection, schedule: Q01DX001 (ip), vehicle: saline with Tween-80.
Where [4] appears, read: dose: 200.0 mg/kg/injection, schedule: Q01DX001 (ip), vehicle: saline with Tween-80.
Where [5] appears, read: dose: 400.0 mg/kg/injection, schedule: Q01DX001 (ip), vehicle: saline with Tween-80.
[6] abbreviates: dose: 75.0 mg/kg/injection, schedule: Q01DX001 (ip), vehicle: saline.
[7] abbreviates: dose: 150.0 mg/kg/injection, schedule: Q01DX001 (ip), vehicle: saline.
Where [8] appears, read: dose: 100.0 mg/kg/injection, schedule: Q04DX003 (ip), vehicle: saline with Tween-80.
The mark [9] stands for this setting: dose: 200.0 mg/kg/injection, schedule: Q04DX003 (ip), vehicle: saline with Tween-80.
[10] abbreviates: dose: 400.0 mg/kg/injection, schedule: Q04DX003 (ip), vehicle: saline with Tween-80.
[11] abbreviates: dose: 100.0 mg/kg/injection, schedule: Q01DX009 (ip), vehicle: saline with Tween-80.
The mark [12] stands for this setting: dose: 200.0 mg/kg/injection, schedule: Q01DX009 (ip), vehicle: saline with Tween-80.
The mark [13] stands for this setting: dose: 400.0 mg/kg/injection, schedule: Q01DX009 (ip), vehicle: saline with Tween-80.

Structures are written as SMILES. Where “and” joins values, the source holds several entries; their conditions need not be identical. Equal entries are not always repeated. Inconclusive results and toxic doses are left out.

Regarding `CC1OC(O)CC(NC(=O)C(F)(F)F)C1O` (stereo unspecified), the T/C (dose: 25.0 mg/kg/injection, schedule: Q01DX005 (ip), vehicle: water) is 98 % of control; the T/C (dose: 50.0 mg/kg/injection, schedule: Q01DX005 (ip), vehicle: water) was 95 % of control; the T/C (dose: 100.0 mg/kg/injection, schedule: Q01DX005 (ip), vehicle: water) is 98 % of control; the T/C (dose: 200.0 mg/kg/injection, schedule: Q01DX005 (ip), vehicle: water) was 107 % of control; the T/C (dose: 400.0 mg/kg/injection, schedule: Q01DX005 (ip), vehicle: water) is 98 % of control.
As for `CCCCCCCCCCCCCC1CCCC(C)N1` (stereo unspecified), the T/C is 89 % of control and 94 % of control (dose: 50.0 mg/kg/injection, schedule: Q04DX002 (ip), vehicle: saline with Tween-80); 93 % of control and 94 % of control under setting [1]; 101 % of control under setting [2].
With `CCC1(C#CCN2C(=O)c3ccccc3C2=O)C=CC2(CC1)OCCO2` (stereo unspecified), the T/C is 101 % of control under setting [3], 93 % of control under setting [4] and 91 % of control under setting [5].
Regarding `c1ccc(C[Se]Cc2ccccc2)cc1`, the T/C reads like this: (dose: 6.25 mg/kg/injection, schedule: Q01DX009 (ip), vehicle: other) 102 % of control; (dose: 12.5 mg/kg/injection, schedule: Q01DX009 (ip), vehicle: other) 97 % of control; (dose: 25.0 mg/kg/injection, schedule: Q01DX009 (ip), vehicle: other) 97 % of control; (dose: 25.0 mg/kg/injection, schedule: Q04DX003 (ip), vehicle: other) 101 % of control; (dose: 50.0 mg/kg/injection, schedule: Q04DX003 (ip), vehicle: other) 87 % of control.
`O=C1CC2CC=CCC2C(=O)O1` (stereo unspecified): the T/C was 101 % of control under setting [6] and 98 % of control under setting [7].
Consider `CN1CCCC(OC(=O)C(c2ccccc2)C2(O)CCCC2)C1` (stereo unspecified), for which the T/C under setting [6] is 98 % of control.
Regarding `C=CCN(C)N=Nc1ccc(C(N)=O)cc1`, the T/C runs as follows: (dose: 18.75 mg/kg/injection, schedule: Q01DX009 (ip), vehicle: Klucel (hydroxypropylcellulose) (HPC)) 106 % of control; (dose: 37.5 mg/kg/injection, schedule: Q01DX009 (ip), vehicle: Klucel (hydroxypropylcellulose) (HPC)) 115 % of control; (dose: 150.0 mg/kg/injection, schedule: Q01DX009 (ip), vehicle: Klucel (hydroxypropylcellulose) (HPC)) 156 % of control; (dose: 300.0 mg/kg/injection, schedule: Q01DX009 (ip), vehicle: Klucel (hydroxypropylcellulose) (HPC)) 92 % of control.
With `CC1(O)CS(=O)(=O)CC1O` (stereo unspecified), the T/C (dose: 100.0 mg/kg/injection, schedule: Q01DX001 (ip), vehicle: saline) is 105 % of control; the T/C (dose: 200.0 mg/kg/injection, schedule: Q01DX001 (ip), vehicle: saline) was 103 % of control; the T/C (dose: 400.0 mg/kg/injection, schedule: Q01DX001 (ip), vehicle: saline) was 101 % of control.
With `OCCCc1nc2ccccc2[nH]1`, the T/C runs as follows: under setting [8], 102 % of control; under setting [9], 107 % of control; under setting [10], 98 % of control.
As for `CN(C)c1ncnc(-c2ccncc2)n1`, the T/C runs as follows: under setting [1], 88 % of control; under setting [2], 100 % of control.
Turning to `CCC(C)(C)c1ccc(O)cc1`, the T/C is, setting by setting: under setting [8], 104 % of control; under setting [9], 98 % of control.
As to `O=C(O)C/C=C/Br`, the T/C runs as follows: under setting [6], 100 % of control; under setting [7], 100 % of control.
Turning to `O=C1C=C(S(=O)(=O)O)c2ccccc2C1=O`, the T/C runs as follows: (dose: 100.0 mg/kg/injection, schedule: Q04DX003 (ip), vehicle: saline) 105 % of control; (dose: 200.0 mg/kg/injection, schedule: Q04DX003 (ip), vehicle: saline) 103 % of control; (dose: 400.0 mg/kg/injection, schedule: Q04DX003 (ip), vehicle: saline) 108 % of control.
On to `CCOC(=O)Cn1cnc2cc(C)c(C)cc21`, for which the T/C is 101 % of control under setting [11]; 94 % of control under setting [8]; 94 % of control under setting [12]; 100 % of control under setting [9]; 96 % of control under setting [10].
In the case of `CCCCCCCCOC(=O)c1cc([N+](=O)[O-])c(Cl)c([N+](=O)[O-])c1`, the T/C is 106 % of control (dose: 25.0 mg/kg/injection, schedule: Q01DX009 (ip), vehicle: saline with Tween-80); 103 % of control (dose: 25.0 mg/kg/injection, schedule: Q04DX003 (ip), vehicle: saline with Tween-80); 101 % of control (dose: 50.0 mg/kg/injection, schedule: Q01DX009 (ip), vehicle: saline with Tween-80); 109 % of control (dose: 50.0 mg/kg/injection, schedule: Q04DX003 (ip), vehicle: saline with Tween-80); 87 % of control under setting [11]; 91 % of control and 98 % of control under setting [8].
In the case of `O=C(Nc1cc([N+](=O)[O-])ccc1F)N(CCO)C1CCCCC1`, the T/C reads like this: under setting [11], 98 % of control; under setting [12], 98 % of control; under setting [13], 103 % of control.
Consider `COC(=O)C1=CCCN(C)C1`, for which the T/C reads like this: (dose: 12.5 mg/kg/injection, schedule: Q01DX009 (ip), vehicle: saline) 98 % of control; (dose: 25.0 mg/kg/injection, schedule: Q01DX009 (ip), vehicle: saline) 104 % of control; (dose: 50.0 mg/kg/injection, schedule: Q01DX009 (ip), vehicle: saline) 98 % of control.
Take `CC(C)OC(=O)Nc1nc2ccccc2s1`: the T/C reads like this: under setting [1], 92 % of control; under setting [2], 95 % of control; (dose: 400.0 mg/kg/injection, schedule: Q04DX002 (ip), vehicle: saline with Tween-80) 92 % of control.
Take `O=C(O)CCC(Cc1ccccc1)C(=O)O` (stereo unspecified): the T/C was 97 % of control under setting [11], 94 % of control under setting [12] and 86 % of control under setting [13].
With `COc1ccc(/C=C/C(=O)O)cc1`, the T/C reads like this: under setting [3], 102 % of control; under setting [4], 96 % of control; under setting [5], 97 % of control.
`CC(=O)c1ccc2c3c(ccc([N+](=O)[O-])c13)CC2`: the T/C by setting is: under setting [11], 94 % of control; under setting [8], 100 % of control and 98 % of control; under setting [9], 100 % of control and 98 % of control; under setting [10], 98 % of control and 101 % of control.
As for `O=C1C(Br)=CC(Br)(Br)C=C1Br`, the T/C is 88 % of control under setting [11], 91 % of control under setting [12] and 86 % of control under setting [13].
